Patent US20030138380A1, “Gas emulsions stabilized with fluorinated ethers having low Ostwald coefficients” (priority 1995, published 2003)

Legend:
[1] = tested on: rabbit carotid artery; experiment: Pulsed Doppler Signal Enhancement Rabbit Model (carotid artery); type: in vivo; conditions: Powder D, osmotic agent in mixture with nitrogen, injected dose 0.2 ml (ca. 1 mg dry powder per kg)
Procedure: (§1) One ml of the resulting microbubble suspension was injected intravenously into an approximately 3 kg rabbit instrumented to monitor the Doppler ultrasound signal of its carotid artery. A 10 MHz flow cuff (Triton Technology Inc., San Diego, Calif.; model ES-10-20) connected to a System 6 Doppler flow module (Triton Technology Inc.) fed the RF Doppler signal to a LeCroy 9410 oscilloscope (LeCroy, Chestnut Ridge, N.Y.). The root mean square (RMS) voltage of the signal computed by the oscilloscope was transferred to a computer and the resultant curve fitted to obtain peak echogenic signal intensity and half-life of the microbubbles in blood. Signals before contrast were less than 0.1 volts RMS.
as §1, with “half-ife” for “half-life”
as §1, with “RF doppler” for “RF Doppler”, “obtain Peak” for “obtain peak”
100 mg samples of the spray-dried powder were placed in 10-ml vials and gassed by perfluoroether-air mixture repeated evacuation-gassing cycles with the help of a syringe needle equipped with a three-way valve. As the filling gases, perfluorodimethyl ether (85%, Exfluor Research, Austin, Tex.), perfluoro(methylethyl ether) (80%, Exfluor Research, Austin, Tex.), perfluoro(diethyl ether) (90%, Strem Chemicals, Newburyport, Mass.), n-perfluoropropane and n-perfluorobutane (97%, PCR Incorporated) were used. […] Their echogenic properties in vivo were evaluated using a Pulsed Doppler Signal Enhancement Rabbit Model as described in Example III.
After reconstituting the powder with 10 ml of water, the bubbles were formed. Their echogenic properties in vivo were evaluated using a Pulsed Doppler Signal Enhancement Rabbit Model, as described in Example III, with the difference that the injected dose was reduced to 0.2 ml (ca. 1 mg of dry powder per kg of rabbit). FIGS. 2a, 2b, and 2c compare the decay of ultrasound signal over time for different filling gases at close partial pressures. The data are arranged in pairs so that microbubble preparations comprising perfluoroethers (thick lines) are compared directly with their perfluorocarbon analogues (thin lines). From the graphs it is evident that perfluoroether-filled bubbles have a longer persistence in the bloodstream than their fluorocarbon analogues.

[2] = 25 degrees C.; literature, or if not there calculated with the model of Lawson et al.; cited from earlier work
[3] = tested on: pig heart; experiment: Second harmonic ultrasound imaging of the heart, pig model; type: in vivo, pigs; conditions: Powder D with osmotic agent-N2 mixture, 0.5 mL infused over 1 min via jugular vein
Procedure: After reconstituting the powder with 10 ml of water, the bubbles were formed.
Anesthetized pigs (14-16 kg) were fitted with indwelling catheters in the femoral artery and femoral and jugular veins for hemodynamic monitoring and contrast agent administration. Parasternal short-axis cardiac images at the level of the papillary muscles were obtained using an HP Sonos 2500 Ultrasound machine. Images were acquired in the Second Harmonic mode with a wide bandwidth linear phased array probe emitting at 2 MHz and receiving at 4 MHz. Imaging was intermittent (gated), triggered at end-diastole of every cardiac cycle. 0.5 mnL of reconstituted contrast agent was diluted with 0.5 mL sterile saline and infused over 1 min via the jugular vein.
FIGS. 3, 4, and 5 show a time course of ultrasound images of the heart following intravenous administration of contrast agents. […] FIGS. 4 and 5 show ultrasound images of the same hearts one minute and six minutes after infusion with the respective contrast agents. FIGS. 3a, 4a, and 5a show the ultrasound images of the heart following intravenous administration of contrast agent stabilized by perfluoropolyether. FIGS. 3b, 4b, and 5b show the ultrasound images of the heart following intravenous administration of contrast agent stabilized by perfluorohexane.

[4] = 25 degrees C.; first four values, as reported by Wilhelm, Battino and Wilcock; cited from earlier work

FC(F)(F)OC(F)(F)C(F)(F)OC(F)(F)C(F)(F)OC(F)(F)F [CF3O(CF2CF2O)2CF3, perfluorodiglyme]
Time of decay of the Doppler signal to baseline, s, at ρF = 0.13 ± 0.03 atm [1]: >1800 s | PF, sat9 atm (saturated vapor pressure) [2]: 0.20 atm

FC(F)(F)OC(F)(F)C(F)(F)OC(F)(F)C(F)(F)F [CF3OC2F4OC2F5]
PF, sat9 atm (saturated vapor pressure) [2]: 0.55 atm

FC(F)(F)OC(F)(F)C(F)(F)OC(F)(F)F [CF3OC2F4OCF3, perfluoromonoglyme]
Time of decay of the Doppler signal to baseline, s, at ρF = 0.13 ± 0.03 atm [1]: 400 s | PF, sat9 atm (saturated vapor pressure) [2]: 1.16 atm

FC(F)(F)OC(F)(F)F [CF3OCF3, perfluorodimethylether]
PF, sat9 atm (saturated vapor pressure) [2]: 10.9 atm

FC(F)(F)OC(F)(F)OC(F)(F)OC(F)(F)OC(F)(F)F [CF3—(OCF2)3OCF3]
Time of decay of the Doppler signal to baseline, s, at ρF = 0.13 ± 0.03 atm [1]: 1200 s | contrast of the heart one minute after injection [3]: Substantial contrast of the heart | tissue contrast of the heart at six minutes [3]: still a great deal of tissue contrast

FC(F)(F)F [CF4]
L × 10^6 (Ostwald coefficient) [4]: 5172 | PF, sat9 atm (saturated vapor pressure) [2]: 159 atm

FS(F)(F)(F)(F)F [SF6]
L × 10^6 (Ostwald coefficient) [4]: 5950 | PF, sat9 atm (saturated vapor pressure) [2]: 23.5 atm

FC(F)(F)C(F)(F)OC(F)(F)C(F)(F)F [Sample C2F5OC2F5, perfluorodiethylether]
PF, sat9 atm (saturated vapor pressure) [2]: 1.9 atm

FC(F)(F)C(F)(F)F [Sample C2F6, C2F6]
PF, sat9 atm (saturated vapor pressure) [2]: 26.2 atm

FC(F)(F)C(F)(F)C(F)(F)OC(F)(F)C(F)(F)C(F)(F)F [Sample C3F7OC3F7, C3F7OC3F7]
PF, sat9 atm (saturated vapor pressure) [2]: 0.30 atm

O=O [Sample O2, oxygen]
L × 10^6 (Ostwald coefficient) [4]: 31110

FC(F)(F)C(F)(F)C(F)(F)F [n-C3F8, n-perfluoropropane]
PF, sat9 atm (saturated vapor pressure) [2]: 6.8 atm

FC(F)(F)C(F)(F)C(F)(F)C(F)(F)F [n-C4F10, perfluorobutane]
Time of decay of the Doppler signal to baseline, s, at ρF = 0.13 ± 0.03 atm [1]: 300 s | PF, sat9 atm (saturated vapor pressure) [2]: 2.2 atm

FC(F)(F)C(F)(F)C(F)(F)C(F)(F)C(F)(F)F [n-C5F12, perfluoropentane]
Time of decay of the Doppler signal to baseline, s, at ρF = 0.13 ± 0.03 atm [1]: 400 s | PF, sat9 atm (saturated vapor pressure) [2]: 0.84 atm

FC(F)(F)C(F)(F)C(F)(F)C(F)(F)C(F)(F)C(F)(F)F [n-C6F14, perfluorohexane]
Time of decay of the Doppler signal to baseline, s, at ρF = 0.13 ± 0.03 atm [1]: 600 s | contrast of the heart one minute after injection [3]: Substantial contrast of the heart | tissue contrast of the heart at six minutes [3]: declined markedly | PF, sat9 atm (saturated vapor pressure) [2]: 0.27 atm

nitrogen [Sample N2]
L × 10^6 (Ostwald coefficient) [4]: 15880
